Data reported in patent publication US20200147039A1, “COMPOUNDS USEFUL IN INHIBITING HUMAN TREFOIL FACTOR 3” (NATIONAL UNIVERSITY OF SINGAPORE, priority 2017, published 2020).

Key:
[1] = test system: MCF7 cells with forced expression of TFF3; assay: MCF7 cells with forced expression of TFF3: western blot, cell viability, caspase 3/7 (FIG. 5); format: cell-based, human; settings: MCF7 cells with forced expression of TFF3, 5 μM
Protocol: (A) Western blot analysis was used to assess the levels of pSTAT3, STAT3, BCL2, and CCND1 protein in MCF7 cells with forced expression of TFF3 after treatment with compound 43 (5 μM) and Stattic (2 μM) was used to treat cells. Depletion of STAT3 expression was achieved using transient-transfection of small interfering (si)-RNA (Invitrogen, Singapore) directed to STAT3 transcript as previously described in Pandey V et al., Breast Cancer Res. 2014; 16(5):429. Anti-TFF3 polyclonal antibody was used as previously described (ibid). Soluble whole cell extracts were run on a SDS-PAGE and immunoblotted as previously described (ibid). β-ACTIN was used as input control for cell lysate. The sizes of detected protein bands in kDa are shown on the right side (B) Cell viability and (C) caspase 3/7 activities in MCF7 cells with forced expression of TFF3 after treatment with compound 43 (5 μM) and Stattic (2 μM) was used to treat cells. […] Evaluated using ApoTox-Glo™ Triplex Assay Kit, Promega (Singapore) according to manufacturer's instructions. Cell viability fluorescence is measured at 400Ex/505Em, while apoptosis (caspase 3/7 activities) is determined with the luminescence measurement. […] Statistical significance was assessed by using an unpaired two-tailed Student's t test (P<0.05 was considered as significant) using GraphPad Prism5. […]

MDA-MB-231 = assay: AlamarBlue cell viability assay, MDA-MB-231; format: cell-based; settings: Homo sapiens, Mammary
Excerpt: (§1) (A) Inhibitory concentration 50% (IC50) values for compound 43 in the MC cell lines are tabulated, using an AlamarBlue™ cell viability assay as previously described in Pandey V et al., Breast Cancer Res. 2014; 16(5):429. (B) Measured dose-dependent manner effect of compound 43 on the viability of MC cells (left-side, TFF3-high and right, TFF3-low) using AlamarBlue™ viability assay as previously described (ibid). (C) Apoptotic cell death of mammary carcinoma cell lines measured after treatment with 10 μM compound 43 using flow cytometry analysis at 24 hour as described previously in Keerthy H K et al., PloS one. 2014; 9(9):e107118. Annexin V-FITC staining is indicated on the X-axis and PI staining on the Y-axis. […] Acquisition of Annexin V and PI data were represented as percentage (%) in each quadrant. Note: CM, conditioned media; MCF10A and MCF12A, non-transformed immortalized-mammary epithelial cell line. Points are mean of triplicate experiments; bars, ±SD. Statistical significance was assessed by using an unpaired two-tailed Student's t test (P<0.05 was considered as significant) using GraphPad Prism5. […]
(§2) In table 9 IC50 values of compound 43 compound library in several cancer cell lines are tabulated, using an AlamarBlue® cell viability assay as previously described in Pandey V et al., Breast Cancer Res. 2014; 16(5):429. Statistical analysis was assessed by using GraphPad Prism5. […]

HCC827 = assay: AlamarBlue cell viability assay, HCC827; format: cell-based; settings: Homo sapiens, Lung
Protocol: (§3) The human immortalized mammary epithelial cell lines, MCF10A, and MCF12A; and immortalized hepatocellular epithelial cell line, LO2 were obtained from the American Type Culture Collection (ATCC, Rockville, Md.) and were cultured as per ATCC propagation instructions. MC cell lines, MCF7, T47D, BT474, BT20, MDA-MB-361, MDA-MB-436, MDA-MB-468, and MDA-MB-231; endometrial carcinoma cell lines, Ishikawa, ECC1, RL95-2 and AN3; hepatocellular carcinoma cell lines, Hep3B, H2P, and H2M; colon carcinoma cell lines, DLD-1, and Caco-2; and prostate carcinoma cell lines, PC3, LNCaP, and DU145 were obtained from the American Type Culture Collection (ATCC, Rockville, Md.). Pancreatic carcinoma cell lines, AsPC-1 and BxPC-3; Lung carcinoma cell lines, HCC-827, NCI-H1975, HCC-4006, PC-14, and NCI-H1299; and Thyroid carcinoma cell lines HTH83, CAL62, T238, and OGK-M were obtained from Prof. H. Phillip Koeffler's laboratory at The Cancer Science Institute of Singapore, National University of Singapore (NUS). Gastric carcinoma cell lines, AGS, MKN-28, MKN-45, and A2-528 were obtained from Prof. […]
as §2

MKN-45 = assay: AlamarBlue cell viability assay, MKN-45; format: cell-based; settings: Homo sapiens, Gastric
Protocol: as §3, §2

DU145 = assay: AlamarBlue cell viability assay, DU145; format: cell-based; settings: Homo sapiens, DU-145, Prostate
Protocol: as §3, §2

OGK-M = assay: AlamarBlue cell viability assay, OGK-M; format: cell-based; settings: Homo sapiens, Thyroid
Protocol: as §3, §2

[2] = test system: TFF3-high expressing mammary carcinoma cell (MCF7, BT474, MDA-MB-361); assay: Cell viability in 3D Matrigel culture, AlamarBlue (FIG. 4); format: cell-based, human; settings: cultured 14 days in 3D Matrigel, vs vehicle (DMSO)
Protocol: Cell viability in colonies generated by MCF7, BT474 and MDA-MB-361 cell after exposure with compound 43 or vehicle (DMSO) cultured 14 days in 3D Matrigel using AlamarBlue™ viability assay as previously described in Pandey V et al., Breast Cancer Res. 2014; 16(5):429. Microscopic visualization (right side) of colonies generated by BT474 and MCF7 cells after exposure with compound 43 or vehicle (DMSO) cultured 14 days in 3D Matrigel. On days 5, 8 and 11, colonies were treated with compound 43 or DMSO. Statistical significance was assessed by using an unpaired two-tailed Student's t test (P<0.05 was considered as significant) using GraphPad Prism5.

HTH83 = assay: AlamarBlue cell viability assay, HTH83; format: cell-based; settings: Homo sapiens, Thyroid
Protocol: as §3, §2

MDA-MB-436 = assay: AlamarBlue cell viability assay, MDA-MB-436; format: cell-based; settings: Homo sapiens, Mammary
Excerpt: as §1, §2

Hep3B = assay: AlamarBlue cell viability assay, Hep3B; format: cell-based; settings: Homo sapiens, Hepatocellular
Protocol: as §3, §2

Cc1cc(-c2ccc(C3C(C#N)=C(N)Oc4c3c(=O)oc3ccccc43)cc2)cnc1F (stereo not shown) [Compound 43, 2-Amino-4-(4-(6-fluoro-5-methylpyridin-3-yl)phenyl)-5-oxo-4H,5H-pyrano[3,2-c]chromene-3-carbonitrile]
TFF3-stimulated effects [1]: reverted
IC50 (MDA-MB-231): 408 µM
IC50 (HCC827): 930 nM
IC50 (MKN-45): 6.81 µM
IC50 (DU145): 1910 nM
IC50 (OGK-M): 411 µM
cell viability in Matrigel 3D culture [2]: suppresses cell viability
IC50 (HTH83): 560 nM
IC50 (MDA-MB-436): 396 µM
IC50 (Hep3B): 8.44 µM
